Source: patent US8349824B2, “Triazolopyridine compounds” (Hoffmann-La Roche Inc., priority 2010, dated 2013)

Each compound was assayed against T1, human PDE10A full length (Homo sapiens, UniProt Q9Y233) (assay: PDE10A Scintillation Proximity Assay (SPA), human PDE10A full length assay). Details: 50 nM cGMP + 50 nM [3H]-cGMP, 20 minutes at room temperature, read-out: PDE10A inhibition IC50.
T1 construct: purchased Enzo Life Science, Lausen, Switzerland SE-534
Type: biochemical
Description: The following test was carried out in order to determine the activity of the compounds of the present invention. PDE10 activity of the compounds of the present invention was determined using a Scintillation Proximity Assay (SPA)-based method similar to the one previously described (Fawcett, L. et al., Proc Natl Acad Sci USA (2000) 97(7):3702-3707).
The human PDE10A full length assay was performed in 96-well micro titer plates. The reaction mixture of 50 μl contained 20 mM HEPES pH=7.5/10 mM MgCl2/0.05 mg/ml BSA (Sigma cat. #A-7906), 50 nM cGMP (Sigma, cat. #G6129) and 50 nM [^3H]-cGMP (GE Healthcare, cat. #TRK392 S.A. 13.2Ci/mmol), 3.75 ng/well PDE10A enzyme (Enzo Life Science, Lausen, Switzerland cat #SE-534) with or without a specific test compound. A range of concentrations of the potential inhibitor was used to generate data for calculating the concentration of inhibitor resulting in 50% of the effect (e.g. IC50, the concentration of the competitor inhibiting PDE10A activity by 50%). Non-specific activity was tested without the enzyme. The reaction was initiated by the addition of the substrate solution (cGMP and [^3H]-cGMP) and allowed to progress for 20 minutes at room temperature. The reaction was terminated by adding 25 μl of YSi-SPA scintillation beads (GE Healthcare, cat. #RPNQ0150) in 18 mM zinc sulphate solution (stop reagent). After 1 h under shaking, the plate was centrifuged one minute at 170 g to allow beads to settle. Afterwards, radioactive counts were measured on a Perkin Elmer TopCount Scintillation plate reader.

T1 sequence (Q9Y233 1-779 isoform Q9Y233-1): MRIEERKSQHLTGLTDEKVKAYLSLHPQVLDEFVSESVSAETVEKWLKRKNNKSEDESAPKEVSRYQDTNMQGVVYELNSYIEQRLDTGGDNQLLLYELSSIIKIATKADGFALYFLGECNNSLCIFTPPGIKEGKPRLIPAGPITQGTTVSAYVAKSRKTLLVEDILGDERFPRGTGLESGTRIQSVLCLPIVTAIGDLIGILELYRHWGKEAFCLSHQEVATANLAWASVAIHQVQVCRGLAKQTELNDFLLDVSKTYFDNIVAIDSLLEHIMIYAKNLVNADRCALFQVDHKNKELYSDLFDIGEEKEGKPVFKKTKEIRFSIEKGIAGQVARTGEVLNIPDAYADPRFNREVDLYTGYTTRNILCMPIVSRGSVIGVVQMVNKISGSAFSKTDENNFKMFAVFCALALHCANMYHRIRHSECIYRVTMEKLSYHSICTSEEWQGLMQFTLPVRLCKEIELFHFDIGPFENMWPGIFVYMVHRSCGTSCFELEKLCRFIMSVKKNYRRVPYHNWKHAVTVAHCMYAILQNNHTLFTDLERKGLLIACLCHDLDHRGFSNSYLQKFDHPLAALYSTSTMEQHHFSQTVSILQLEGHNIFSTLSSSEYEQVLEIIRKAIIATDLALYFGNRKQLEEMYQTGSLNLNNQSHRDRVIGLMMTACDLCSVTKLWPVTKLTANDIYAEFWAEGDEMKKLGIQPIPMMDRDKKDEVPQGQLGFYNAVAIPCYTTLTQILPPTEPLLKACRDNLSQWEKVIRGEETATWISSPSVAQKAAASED

Compound | IC50
COC(=O)CN(C)C(=O)c1cnn(C)c1C(=O)Nc1ccn2nc(-c3ccccc3)nc2c1 [Example 93, {Methyl-[1-methyl-5-(2-phenyl-[1,2,4]triazolo[1,5-a]pyridin-7-ylcarbamoyl)-1H-pyrazole-4-carbonyl]-amino}-acetic acid methyl ester] | 2.16 nM
CN(CCO)C(=O)c1cnn(C)c1C(=O)Nc1ccn2nc(N3CCOCC3)nc2c1 [Example 94, 2-Methyl-2H-pyrazole-3,4-dicarboxylic acid 4-[(2-hydroxy-ethyl)-methyl-amide]3-[(2-morpholin-4-yl-[1,2,4]triazolo[1,5-a]pyridin-7-yl)-amide]] | 20.4 nM
COC(=O)CN(C)C(=O)c1cnn(C)c1C(=O)Nc1ccn2nc(N3CCOCC3)nc2c1 [Example 95, {Methyl-[1-methyl-5-(2-morpholin-4-yl-[1,2,4]triazolo[1,5-a]pyridin-7-ylcarbamoyl)-1H-pyrazole-4-carbonyl]-amino}-acetic acid methyl ester] | 50.4 nM
Cn1ncc(C(=O)NCCF)c1C(=O)Nc1ccn2nc(-c3ccccc3)nc2c1 [Example 96, 2-Methyl-2H-pyrazole-3,4-dicarboxylic acid 4-[(2-fluoro-ethyl)-amide]3-[(2-phenyl[1,2,4]triazolo[1,5-a]pyridin-7-yl)-amide]] | 2.12 nM
CN1CCN(C(=O)c2cnn(C)c2C(=O)Nc2ccn3nc(-c4cccc(F)c4)nc3c2)CC1 [Example 108, 2-Methyl-4-(4-methyl-piperazine-1-carbonyl)-2H-pyrazole-3-carboxylic acid [2-(3-fluoro-phenyl)-[1,2,4]triazolo[1,5-a]pyridin-7-yl]-amide] | 15.6 nM
Cn1ncc(C(=O)N2CCC2)c1C(=O)Nc1ccn2nc(-c3cccnc3F)nc2c1 [Example 110, 4-(Azetidine-1-carbonyl)-2-methyl-2H-pyrazole-3-carboxylic acid [2-(2-fluoro-pyridin-3-yl)-[1,2,4]triazolo[1,5-a]pyridin-7-yl]-amide] | 4.66 nM
Cn1ncc(C(=O)NC2CC2)c1C(=O)Nc1ccn2nc(N3CCOCC3)nc2c1 [Example 113, 2-Methyl-2H-pyrazole-3,4-dicarboxylic acid 4-cyclopropylamide 3-[(2-morpholin-4-yl-[1,2,4]triazolo[1,5-a]pyridin-7-yl)-amide]] | 19.1 nM
CN(CCF)c1nc2cc(NC(=O)c3c(C(=O)N4CCCC4)cnn3C)ccn2n1 [Example 115, 2-Methyl-4-(pyrrolidine-1-carbonyl)-2H-pyrazole-3-carboxylic acid {2-[(2-fluoro-ethyl)-methyl-amino]-[1,2,4]triazolo[1,5-a]pyridin-7-yl}-amide] | 2.29 nM
Cn1ncc(C(=O)N2CCOCC2)c1C(=O)Nc1ccn2nc(-c3cccc(F)n3)nc2c1 [Example 121, 2-Methyl-4-(morpholine-4-carbonyl)-2H-pyrazole-3-carboxylic acid [2-(6-fluoro-pyridin-2-yl)-[1,2,4]triazolo[1,5-a]pyridin-7-yl]-amide] | 5.06 nM
Cn1ncc(C(=O)N2CC3(COC3)C2)c1C(=O)Nc1ccn2nc(N3CCCC3)nc2c1 [Example 122, 2-Methyl-4-(2-oxa-6-aza-spiro[3.3]heptane-6-carbonyl)-2H-pyrazole-3-carboxylic acid (2-pyrrolidin-1-yl-[1,2,4]triazolo[1,5-a]pyridin-7-yl)-amide] | 6.21 nM
CN(c1nc2cc(NC(=O)c3c(C(=O)O)cnn3C)ccn2n1)C1CC1 [Example 125, 5-[2-(Cyclopropyl-methyl-amino)-[1,2,4]triazolo[1,5-a]pyridin-7-ylcarbamoyl]-1-methyl-1H-pyrazole-4-carboxylic acid] | 54 nM
CN(c1nc2cc(NC(=O)c3c(C(=O)N4CCOCC4)cnn3C)ccn2n1)C1CC1 [Example 128, 2-Methyl-4-(morpholine-4-carbonyl)-2H-pyrazole-3-carboxylic acid [2-(cyclopropyl-methyl-amino)-[1,2,4]triazolo[1,5-a]pyridine-7-yl]-amide] | 3.37 nM

These reach a lower IC50. Values come first.

IC50 | Compound
0.59 nM | COCCN(C)C(=O)c1cnn(C)c1C(=O)Nc1ccn2nc(-c3cccc(OCF)c3)nc2c1 [Example 89, 2-Methyl-2H-pyrazole-3,4-dicarboxylic acid 3-{[2-(3-fluoromethoxy-phenyl)-[1,2,4]triazolo[1,5-a]pyridin-7-yl]-amide} 4-[(2-methoxy-ethyl)-methyl-amide]]
1.02 nM | Cn1ncc(C(=O)N2CCC2)c1C(=O)Nc1ccn2nc(-c3cccc(OCCF)c3)nc2c1 [Example 90, 4-(Azetidine-1-carbonyl)-2-methyl-2H-pyrazole-3-carboxylic acid {2-[3-(2-fluoro-ethoxy)-phenyl]-[1,2,4]triazolo[1,5-a]pyridin-7-yl}-amide]
0.86 nM | Cn1ncc(C(=O)N2CCC2)c1C(=O)Nc1ccn2nc(-c3cccc(OCF)c3)nc2c1 [Example 91, 4-(Azetidine-1-carbonyl)-2-methyl-2H-pyrazole-3-carboxylic acid [2-(3-fluoromethoxy-phenyl)-[1,2,4]triazolo[1,5-a]pyridin-7-yl]-amide]
0.98 nM | CN(CCO)C(=O)c1cnn(C)c1C(=O)Nc1ccn2nc(-c3ccccc3)nc2c1 [Example 92, 2-Methyl-2H-pyrazole-3,4-dicarboxylic acid 4-[(2-hydroxy-ethyl)-methyl-amide]3-[(2-phenyl-[1,2,4]triazolo[1,5-a]pyridin-7-yl)-amide]]
0.31 nM | COc1ccccc1-c1nc2cc(NC(=O)c3c(C(=O)N(C)C)cnn3C)ccn2n1 [Example 97, 2-Methyl-2H-pyrazole-3,4-dicarboxylic acid 4-dimethylamide 3-{[2-(2-methoxy-phenyl)-[1,2,4]triazolo[1,5-a]pyridin-7-yl]-amide}]
0.67 nM | CCN(C)C(=O)c1cnn(C)c1C(=O)Nc1ccn2nc(-c3ccccc3OC)nc2c1 [Example 98, 2-Methyl-2H-pyrazole-3,4-dicarboxylic acid 4-(ethyl-methyl-amide)3-{[2-(2-methoxy-phenyl)-[1,2,4]triazolo[1,5-a]pyridin-7-yl]-amide}]
0.74 nM | COCCN(C)C(=O)c1cnn(C)c1C(=O)Nc1ccn2nc(-c3ccccc3OC)nc2c1 [Example 99, 2-Methyl-2H-pyrazole-3,4-dicarboxylic acid 4-[(2-methoxy-ethyl)-methyl-amide]3-{[2-(2-methoxy-phenyl)-[1,2,4]triazolo[1,5-a]pyridin-7-yl]-amide}]
0.65 nM | CCN(C)C(=O)c1cnn(C)c1C(=O)Nc1ccn2nc(-c3ccccc3OCCF)nc2c1 [Example 101, 2-Methyl-2H-pyrazole-3,4-dicarboxylic acid 4-(ethyl-methyl-amide)3-({2-[2-(2-fluoro-ethoxy)-phenyl]-[1,2,4]triazolo[1,5-a]pyridin-7-yl}-amide)]
1.11 nM | CCN(C)C(=O)c1cnn(C)c1C(=O)Nc1ccn2nc(-c3cccnc3)nc2c1 [Example 116, 2-Methyl-2H-pyrazole-3,4-dicarboxylic acid 4-(ethyl-methyl-amide)3-[(2-pyridin-3-yl-[1,2,4]triazolo[1,5-a]pyridin-7-yl)-amide]]
0.49 nM | CN(C(=O)c1cnn(C)c1C(=O)Nc1ccn2nc(N(C)C3CC3)nc2c1)C1CC1 [Example 126, 2-Methyl-2H-pyrazole-3,4-dicarboxylic acid 4-(cyclopropyl-methyl-amide)3-{[2-(cyclopropyl-methyl-amino)-[1,2,4]triazolo[1,5-a]pyridin-7-yl]-amide}]
0.73 nM | CN(c1nc2cc(NC(=O)c3c(C(=O)N4CCC4)cnn3C)ccn2n1)C1CC1 [Example 127, 4-(Azetidine-1-carbonyl)-2-methyl-2H-pyrazole-3-carboxylic acid [2-(cyclopropyl-methyl-amino)-[1,2,4]triazolo[1,5-a]pyridin-7-yl]-amide]
1.1 nM | Cn1ncc(C(=O)N2CCN3CCC2C3)c1C(=O)Nc1ccn2nc(-c3ccccc3)nc2c1 (stereo not drawn) [Example 129, 4-(1,4-Diaza-bicyclo[3.2.1]octane-4-carbonyl)-2-methyl-2H-pyrazole-3-carboxylic acid (2-phenyl-[1,2,4]triazolo[1,5-a]pyridin-7-yl)-amide]
0.34 nM | Cn1ncc(C(=O)N2CCC2)c1C(=O)Nc1ccn2nc(-c3ccccc3OCCF)nc2c1 [Example 130, 4-(Azetidine-1-carbonyl)-2-methyl-2H-pyrazole-3-carboxylic acid {2-[2-(2-fluoro-ethoxy)-phenyl]-[1,2,4]triazolo[1,5-a]pyridin-7-yl}-amide]
0.9 nM | Cn1ncc(C(=O)N2CCOCC2)c1C(=O)Nc1ccn2nc(-c3ccccc3OCCF)nc2c1 [Example 131, 2-Methyl-4-(morpholine-4-carbonyl)-2H-pyrazole-3-carboxylic acid {2-[2-(2-fluoro-ethoxy)-phenyl]-[1,2,4]triazolo[1,5-a]pyridin-7-yl}-amide]
1.02 nM | COCCN(C)C(=O)c1cnn(C)c1C(=O)Nc1ccn2nc(-c3ccccc3OCCF)nc2c1 [Example 132, 2-Methyl-2H-pyrazole-3,4-dicarboxylic acid 3-({2-[2-(2-fluoro-ethoxy)-phenyl]-[1,2,4]triazolo[1,5-a]pyridin-7-yl}-amide) 4-[(2-methoxy-ethyl)-methyl-amide]]
